This note sets out measurements from US20240294499A1, “TARGETED PROTEIN DEGRADATION USING BIFUNCTIONAL COMPOUNDS THAT BIND UBIQUITIN LIGASE AND TARGET MCL-1 PROTEIN” (Captor Therapeutics S.A., priority 2021, published 2024).

A value given as a limit tells only on which side of the number the result lay.

One data set concerns MV-4-11 cells. The data set can be described thus: Cell viability assay (CellTiter-Glo), MV-4-11. The class given is cell-based. The note with it: Homo sapiens, MV4-11, 24 hours incubation, 1% FBS, read-out: Average pIC50 by molecule MV-4-11 (converted). An outline of the steps:
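OPM-2, MV-4-11 and ARH-77 cells were grown in medium with 1% FBS and treated with compound in 1/3 dilutions from 30 uM (9–12 points, 0.5% DMSO). Viability was read by CellTiter-Glo luminescence after 24 hours and normalized to DMSO control.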
(In general: Cellular ATP, detected with luciferase, serves as a proxy for viable cell number.)

The next data set concerns OPM-2 cells. The data set can be described thus: Cell viability assay (CellTiter-Glo), OPM-2. As to conditions: Homo sapiens, 24 hours incubation, 1% FBS, read-out: Average pIC50 by molecule OPM-2 (converted). The class given is cell-based. An excerpt: The effect of various compounds of the invention on the viability of OPM-2, MV-4-11 and ARH-77 cell lines was investigated, using the CTG protocol described below.
OPM-2 and MV-4-11 cell lines are derived from multiple myeloma and acute myeloid leukaemia, respectively. Both cell lines are described in the literature as MCL-1 dependent lines, as opposed to lymphoblast-like ARH-77 cell line, which is described as independent of MCL-1 (Tron A E et al. Nat Commun. 2018; 9: 5341; Caenepeel S et al. Cancer Discov. 2018 December; 8(12):1582-1597).
Cells (OPM-2, MV-4-11 or ARH-77) were seeded on […] in a growth medium with FBS reduced to 1%. Next, compound stocks were pre-diluted in DMSO and added directly to the cells growth medium (final DMSO concentration: 0.5%). Compound concentrations used in this assay: 1/3 dilutions starting at 30 uM (9 to 12 points).
After 24 hours of incubation, cell viability was evaluated using CellTiter-Glo Luminescent Cell Viability Assay (Promega, cat #G7572). Luminescence signal was measured using a CLARIOstar Plus Multi-Mode Microplate Reader (574-590 nm).
Results were normalized to DMSO control.

Data set [1] deals with T1, MCL-1 protein (Homo sapiens, UniProt Q07820). The data set can be described thus: OPM-2 cells: MCL-1 protein degradation, Western blot. The class given is cell-based. The arrangement: endogenous in cells; host or cells: OPM-2. As to conditions: OPM-2 cell line, 6 h treatment, 100 nM compound, vs DMSO. From the text: The effect of various compounds of the invention and the reference compounds on MCL-1 protein degradation in the OPM-2 cell line was investigated, using the degradation assay protocol below.
T1 sequence (Q07820 whole entry): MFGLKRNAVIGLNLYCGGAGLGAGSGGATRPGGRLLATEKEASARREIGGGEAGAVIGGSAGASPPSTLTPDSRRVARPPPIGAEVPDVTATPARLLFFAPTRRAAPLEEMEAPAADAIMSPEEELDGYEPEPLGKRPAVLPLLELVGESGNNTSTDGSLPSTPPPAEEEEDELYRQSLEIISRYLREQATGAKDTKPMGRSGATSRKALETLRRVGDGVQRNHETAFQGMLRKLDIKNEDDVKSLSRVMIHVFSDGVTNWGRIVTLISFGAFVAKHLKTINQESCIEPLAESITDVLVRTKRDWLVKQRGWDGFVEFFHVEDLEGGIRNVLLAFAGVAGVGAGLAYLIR
(§1) OPM-2 cells were maintained in RPMI-1640 medium, supplemented with penicillin/streptomycin and 10% Fetal Bovine Serum (FBS). During the treatment, FBS concentration was reduced to 1%.
(§2) Compound stocks were pre-diluted in DMSO and added directly to the cells growth medium (final DMSO concentration: 0.5%).
(§3) OPM-2 cells were collected, centrifuged (250 rcf, 5 min), resuspended in a growth medium containing 1% FBS and counted. The cell suspension was then adjusted to 1×10^6 cell/ml using a growth medium containing 1% FBS. Afterwards, 0.5×10^6 cells were seeded on 24-well plates in 0.5 mL of medium per well. Immediately after seeding cells, compounds in appropriate concentrations were added to the cell culture medium.
Following the treatment with the compounds, cells were collected from the plates and suspended in a lysis buffer (2% SDS, 50 mM Tris, pH 8.0, 100 U/ml Pierce Universal Nuclease for Cell Lysis, complete EDTA-free Protease Inhibitor Cocktail) and incubated on ice for 45 min. The amount of protein was determined via BCA assay, and the equal quantity of each sample was loaded on the precast gel for the protein separation. Following the electrophoresis and transfer to the membrane, the membrane was stained with Ponceau (0.1% (w/v) Ponceau in 5% acetic acid). After total protein detection, the stain was washed out using TBST. After the antibody staining for MCL-1 and α-tubulin, the membranes were washed and signals developed.
Densitometric values for MCL-1 were normalized to total protein level (the Ponceau Staining). [%] of protein reduction is calculated in comparison to the cells treated with DMSO, which stand for 0%.
The results for the 6 h treatment with 100 nM compounds are shown in Table 9, using the following labels: • <30% for 0-29% of MCL-1 protein reduction, • ≥30% for 30-49% of MCL-1 protein reduction, • ≥50% for 50-100% of MCL-1 protein reduction.
For orientation: In western blotting, separated proteins are transferred to a membrane and probed.

Data set [2] concerns the target [MCL-1]-[compound of formula (I)]-[CRBN/DDB1] complex (Homo sapiens, UniProt Q07820+Q96SW2). The data set can be described thus: AlphaLISA dose response ternary complex formation assay. The class given is binding. The note with it: read-out: AlphaLISA dose response Average pEC50 by molecule (converted). In a few lines: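 EC50 comes from dose–response of AlphaLISA luminescence (excitation 680, emission 615 nm), normalised between DMSO background and an internal positive control, with concentrations past the hook point dropped. Ternary complex formed by mixing bead-bound biotin-hMCL-1 and His-CRBN/DDB1 (protein solutions 40 and 200 nM) with compound in 2% DMSO, 30 min, 25 °C.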
In general terms: Alpha assays give light when donor and acceptor beads are brought close together.

Data set [3] concerns the target T1, MCL-1 protein. In words: OPM-2 cells: MCL-1 protein degradation, Simple Western. It counts as cell-based. The note with it: OPM-2 cell line, 6 h treatment, 100 nM compound, vs DMSO. The arrangement: endogenous in cells; host or cells: OPM-2.
Excerpt: The effect of various compounds of the invention and the reference compounds on MCL-1protein degradation in the OPM-2 cell line was investigated, using the degradation assay protocol below.
as §1, §2, §3
Following the treatment with the compounds, cells were collected from the plates and suspended in a lysis buffer (2% SDS, 50 mM Tris, pH 8.0, 100 U/ml Pierce Universal Nuclease for Cell Lysis, cOmplete EDTA-free Protease Inhibitor Cocktail) and incubated on ice for 45 min.
The following steps, including sample loading, protein separation, immunoprobing or labelling, washes and detection analysis was performed using Jess from ProteinSimple, an automatic system for analyzing protein levels in cell lysates (12-230 kDa Jess or Wes separation module 8×25 capillaries, protein normalization assay, no. SM-PN01-1). The Protein of Interest was detected using MCL-1 (D35A5) Rabbit monoclonal antibody (Cell Signaling, #5453, LOT: 4). Antibody was diluted in a ratio of 1:100 in Antibody diluent.
[%] of protein reduction is calculated in comparison to the cells treated with DMSO, which stand for 0%.
The results for the 6 h treatment with 100 nM compounds are shown in Table 9, using the following labels: • <20% for 0-19% of MCL-1 protein reduction, • ≥20% for 20-39% of MCL-1 protein reduction, • ≥40% for 40-100% of MCL-1 protein reduction.

The subject of the next data set is iCELL Cardiomyocytes. In words: Cardiac safety: caspase 3 and 7 activation (Caspase-Glo 3/7) in iCELL Cardiomyocytes. It counts as cell-based. The note with it: for Fold change at 1.2 uM (caspase 3/7 activity in cardiomyocytes): 24 hours incubation, vs DMSO; for activity in caspase activity assay in cardiomyocytes: as opposed to reference compound AZD5991. An excerpt:
The effect of various compounds of the invention and a reference compound AZD5991 on cardiac safety was investigated by the evaluation of caspase 3 and 7 activation using Caspase-Glo 3/7 Assay (Promega; G8092) in iCELL™ Cardiomyocytes from FUJIFILM Cellular Dynamics (Catalog number: 11713). In the Caspase-Glo® 3/7 Assay, the luminescence (measured as Relative Luciferase Units, RLU) is proportional to the amount of caspase activity present in each sample.
The assay is initiated by thawing and seeding iCell® Cardiomyocytes as specified in the User Guide. After 48 hours, the cells are washed to remove unattached cells and debris and immediately treated with compounds or DMSO diluted in the maintenance medium (FCDI; cat: M1003). Compound concentrations used in this assay: 7 points 1/3 dilution curve starting at 100 uM. After 24 hours of incubation with compounds, caspase activity is measured by the addition of the Caspase-Glo® 3/7 Reagent followed by the luminescence measurement.
The analysis of the results is performed by calculation of the fold change in caspase 3/7 activity at a given compound concentration. Fold change is calculated with the formula: […]
where: • RLU Xi is the Relative Luciferase Units of sample I; • RLU BG is the Background Relative Luciferase Units; • RLU C is the Relative Luciferase Units of Control (DMSO).
The experiments were performed in technical duplicates.

[MCL-1]-[compound of formula (I)]-[CRBN/DDB1] complex, sequence (Q07820 whole entry): as above
[MCL-1]-[compound of formula (I)]-[CRBN/DDB1] complex, sequence (Q96SW2 whole entry): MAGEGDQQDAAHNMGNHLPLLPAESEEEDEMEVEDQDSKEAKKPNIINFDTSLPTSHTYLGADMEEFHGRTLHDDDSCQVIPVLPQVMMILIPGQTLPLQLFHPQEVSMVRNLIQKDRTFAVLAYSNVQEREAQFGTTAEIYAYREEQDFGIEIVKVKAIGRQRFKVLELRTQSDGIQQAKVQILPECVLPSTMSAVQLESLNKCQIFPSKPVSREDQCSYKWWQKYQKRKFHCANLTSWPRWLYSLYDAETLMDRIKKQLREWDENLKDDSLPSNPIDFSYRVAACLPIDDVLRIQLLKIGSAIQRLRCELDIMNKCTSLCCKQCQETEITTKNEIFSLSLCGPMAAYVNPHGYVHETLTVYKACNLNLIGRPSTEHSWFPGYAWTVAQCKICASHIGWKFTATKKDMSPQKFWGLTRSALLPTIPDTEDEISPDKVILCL
[MCL-1]-[compound of formula (I)]-[CRBN/DDB1] complex, sequence (Q16531 whole entry partner): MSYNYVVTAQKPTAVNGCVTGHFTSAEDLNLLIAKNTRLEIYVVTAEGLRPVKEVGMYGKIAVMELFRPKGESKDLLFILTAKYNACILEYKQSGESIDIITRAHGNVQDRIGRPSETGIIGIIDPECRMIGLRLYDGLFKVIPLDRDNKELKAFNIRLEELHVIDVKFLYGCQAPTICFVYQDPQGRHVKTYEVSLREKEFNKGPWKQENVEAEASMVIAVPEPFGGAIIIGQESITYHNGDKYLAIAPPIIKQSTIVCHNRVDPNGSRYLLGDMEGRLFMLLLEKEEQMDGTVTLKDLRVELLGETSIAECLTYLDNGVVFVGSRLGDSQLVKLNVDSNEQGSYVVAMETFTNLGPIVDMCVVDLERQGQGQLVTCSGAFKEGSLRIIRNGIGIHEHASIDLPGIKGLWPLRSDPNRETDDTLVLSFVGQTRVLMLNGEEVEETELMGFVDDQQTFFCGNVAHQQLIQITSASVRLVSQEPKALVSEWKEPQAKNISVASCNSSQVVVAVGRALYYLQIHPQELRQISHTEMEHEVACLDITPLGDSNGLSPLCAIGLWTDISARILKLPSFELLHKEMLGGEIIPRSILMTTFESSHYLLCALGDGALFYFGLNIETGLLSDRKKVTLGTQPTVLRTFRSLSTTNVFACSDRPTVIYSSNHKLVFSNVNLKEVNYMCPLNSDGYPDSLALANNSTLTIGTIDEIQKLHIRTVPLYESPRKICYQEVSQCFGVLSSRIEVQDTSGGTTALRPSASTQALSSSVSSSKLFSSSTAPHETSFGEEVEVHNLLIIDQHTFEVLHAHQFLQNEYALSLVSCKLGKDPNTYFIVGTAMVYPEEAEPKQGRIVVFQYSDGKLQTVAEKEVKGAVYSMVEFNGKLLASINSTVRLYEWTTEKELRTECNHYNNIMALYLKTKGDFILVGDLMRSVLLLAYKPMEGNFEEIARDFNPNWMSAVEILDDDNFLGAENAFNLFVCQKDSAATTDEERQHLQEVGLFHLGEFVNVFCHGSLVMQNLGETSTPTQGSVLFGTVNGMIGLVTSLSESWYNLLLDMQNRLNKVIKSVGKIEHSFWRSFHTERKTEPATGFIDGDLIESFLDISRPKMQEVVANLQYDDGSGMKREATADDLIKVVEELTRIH

`Cc1cc(OCCCc2c(C(=O)O)n(CCN3CCN(C(=O)COc4cccc5c4C(=O)N(C4CCC(=O)NC4=O)C5=O)CC3)c3c(-c4c(C)nn(C)c4C)c(Cl)ccc23)cc(C)c1Cl` (stereo not shown) [Compound 201, 6-chloro-3-(3-(4-chloro-3,5-dimethylphenoxy)propyl)-1-(2-(4-(2-((2-(2,6-dioxopiperidin-3-yl)-1,3-dioxoisoindolin-4-yl)oxy)acetyl)piperazin-1-yl)ethyl)-7-(1,3,5-trimethyl-1H-pyrazol-4-yl)-1H-indole-2-carboxylic acid]: the IC50 in the data set with MV-4-11 cells is at most 100 nM; in the data set on OPM-2 cells, at most 1000 nM. Besides, the “Western blot, % of protein reduction” value on MCL-1 protein [1] is reported as at least 50%. In addition, the EC50 in data set [2] is below 100 nM. Also, the “Simple Western, % of protein reduction” value at MCL-1 protein [3] is given as at least 20%.
`Cc1nn(C)c(C)c1-c1c(Cl)ccc2c(CCCOc3cccc4ccccc34)c(C(=O)O)n(CCN3CCN(C(=O)COc4cccc5c4CN(C4CCC(=O)NC4=O)C5=O)CC3)c12` (stereo not shown) [Compound 206, 6-chloro-1-(2-(4-(2-((2-(2,6-dioxopiperidin-3-yl)-1-oxoisoindolin-4-yl)oxy)acetyl)piperazin-1-yl)ethyl)-3-(3-(naphthalen-1-yloxy)propyl)-7-(1,3,5-trimethyl-1H-pyrazol-4-yl)-1H-indole-2-carboxylic acid]: in the data set with MV-4-11 cells, the IC50 was at most 100 nM. Moreover, in the data set on iCELL Cardiomyocytes, the “Fold change at 1.2 uM (caspase 3/7 activity in cardiomyocytes)” value (from here on “Fold change at 1.2 uM”) was at most 1.5 ± 0.2 and the “activity in caspase activity assay in cardiomyocytes” value (“activity in caspase activity assay” below) is on record as “little to no activity”. In addition, the IC50 in the data set with OPM-2 cells is at most 316 nM. For the same molecule, the “Western blot, % of protein reduction” value on MCL-1 protein [1] was at least 50%. Also, in data set [2], the EC50 is below 100 nM. Besides, the “Simple Western, % of protein reduction” value on MCL-1 protein [3] is at least 40%.
As for `Cc1nn(C)c(C)c1-c1c(Cl)ccc2c(CCCOc3cccc4cc(F)ccc34)c(C(=O)O)n(CCN3CCN(C(=O)COc4cccc5c4C(=O)N(C4CCC(=O)NC4=O)C5=O)CC3)c12` (stereo not shown) [Compound 214, 6-chloro-1-{2-[4-(2-{(2-(2,6-dioxopiperidin-3-yl)-1,3-dioxo-2,3-dihydro-1H-isoindol-4-yl]oxy}acetyl)piperazin-1-yl]ethyl}-3-{3-[(6-fluoronaphthalen-1-yl)oxy]propyl}-7-(1,3,5-trimethyl-1H-pyrazol-4-yl)-1H-indole-2-carboxylic acid], in the data set on MV-4-11 cells, the IC50 was at most 100 nM. Moreover, in the data set with iCELL Cardiomyocytes, the “Fold change at 1.2 uM” value was at most 1.5 ± 0.2 and the “activity in caspase activity assay” value is reported as “little to no activity”. In the data set with OPM-2 cells, the IC50 is at most 316 nM. On MCL-1 protein [1], the “Western blot, % of protein reduction” value is reported as at least 50%. Besides, the EC50 in data set [2] was below 10 nM. Besides, the “Simple Western, % of protein reduction” value at MCL-1 protein [3] is on record as at least 40%.
For `Cc1nn(C)c(C)c1-c1cccc2c(CCCOc3cccc4ccccc34)c(C(=O)O)n(CCN3CCN(C(=O)COc4cccc5c4C(=O)N(C4CCC(=O)NC4=O)C5=O)CC3)c12` (stereo not shown) [Compound 241, 1-(2-(4-(2-((2-(2,6-dioxopiperidin-3-yl)-1,3-dioxoisoindolin-4-yl)oxy)acetyl)piperazin-1-yl)ethyl)-3-(3-(naphthalen-1-yloxy)propyl)-7-(1,3,5-trimethyl-1H-pyrazol-4-yl)-1H-indole-2-carboxylic acid], in the data set on MV-4-11 cells, the IC50 is at most 1000 nM. The “Western blot, % of protein reduction” value at MCL-1 protein [1] was at least 50%. In addition, the EC50 in data set [2] was below 100 nM. In addition, the “Simple Western, % of protein reduction” value at MCL-1 protein [3] is on record as at least 20%.
In the case of `Cc1nc2c(C(=O)NC3CCC(=O)NC3=O)cc(OCC(=O)N3CCN(CCn4c(C(=O)O)c(CCCOc5cccc6ccccc56)c5ccc(Cl)c(-c6c(C)nn(C)c6C)c54)CC3)cc2[nH]1` (stereo not shown) [Compound 263, 6-chloro-1-(2-{4-[2-({4-[(2,6-dioxopiperidin-3-yl)carbamoyl]-2-methyl-1H-1,3-benzodiazol-6-yl}oxy)acetyl]piperazin-1-yl}ethyl)-3-[3-(naphthalen-1-yloxy)propyl]-7-(1,3,5-trimethyl-1H-pyrazol-4-yl)-1H-indole-2-carboxylic acid], the values for the IC50 in the data set with MV-4-11 cells and with OPM-2 cells were at most 316 nM and at most 1000 nM, respectively. Further, the “Western blot, % of protein reduction” value on MCL-1 protein [1] is reported as at least 50%. Also, the EC50 in data set [2] was below 100 nM. Besides, on MCL-1 protein [3], the “Simple Western, % of protein reduction” value is recorded as at least 40%.
Consider `Cc1nn(C)c(C)c1-c1c(Cl)ccc2c(CCCOc3cccc4ccccc34)c(C(=O)O)n(CCN3CCN(C(=O)Cn4c(C)nc5c(C(=O)NC6CCC(=O)NC6=O)cccc54)CC3)c12` (stereo not shown) [Compound 266, 6-chloro-1-{2-[4-(2-{4-[(2,6-dioxopiperidin-3-yl)carbamoyl]-2-methyl-1H-1,3-benzodiazol-1-yl}acetyl)piperazin-1-yl]ethyl}-3-[3-(naphthalen-1-yloxy)propyl]-7-(1,3,5-trimethyl-1H-pyrazol-4-yl)-1H-indole-2-carboxylic acid], for which, in the data set with MV-4-11 cells, the IC50 is at most 100 nM. In addition, in the data set on iCELL Cardiomyocytes, the “Fold change at 1.2 uM” value is at most 1.5 ± 0.2 and the “activity in caspase activity assay” value is on record as “little to no activity”. In addition, the IC50 in the data set on OPM-2 cells was at most 316 nM. The EC50 in data set [2] is below 100 nM. The “Simple Western, % of protein reduction” value at MCL-1 protein [3] is at least 40%.
